# Data reported in publication PMC9324074, “Novel Insights on Human Carbonic Anhydrase Inhibitors Based on Coumalic Acid: Design, Synthesis, Molecular Modeling Investigation, and Biological Studies” (International Journal of Molecular Sciences, 2022).
# Like-named read-outs stand apart in the source and are kept apart here.
# What was measured:
# Assay in all cases: stopped-flow CO2 hydrase assay
# Type in all cases: biochemical
# hCA I = biological target: T1, hCA I (Homo sapiens, UniProt P00915)
# T1 construct: gene CA1; recombinant, obtained in house
# T1 sequence (P00915 2-261): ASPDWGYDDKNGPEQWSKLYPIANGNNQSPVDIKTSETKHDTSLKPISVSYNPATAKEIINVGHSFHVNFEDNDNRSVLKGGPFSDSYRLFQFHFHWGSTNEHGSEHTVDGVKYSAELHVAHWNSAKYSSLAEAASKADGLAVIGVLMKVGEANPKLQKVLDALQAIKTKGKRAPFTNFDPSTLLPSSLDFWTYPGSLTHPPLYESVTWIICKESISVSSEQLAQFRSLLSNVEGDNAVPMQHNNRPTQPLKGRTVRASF
# Excerpt: stopped-flow CO2 hydrase assay on hCA I
# hCA IX = biological target: T2, hCA IX (Homo sapiens, UniProt Q16790)
# T2 construct: gene CA9; recombinant, obtained in house
# Excerpt: stopped-flow CO2 hydrase assay on hCA IX
# hCA XII = biological target: T3, hCA XII (Homo sapiens, UniProt O43570)
# T3 construct: gene CA12; recombinant, obtained in house
# T3 sequence (O43570 30-289 limits assumed): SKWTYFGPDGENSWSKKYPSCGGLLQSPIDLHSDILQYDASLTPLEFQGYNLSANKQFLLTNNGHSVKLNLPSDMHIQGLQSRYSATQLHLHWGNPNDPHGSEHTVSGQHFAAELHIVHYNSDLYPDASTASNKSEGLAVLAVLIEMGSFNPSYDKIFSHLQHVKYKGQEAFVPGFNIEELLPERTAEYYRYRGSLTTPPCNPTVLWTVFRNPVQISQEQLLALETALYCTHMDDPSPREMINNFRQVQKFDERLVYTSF
# Excerpt: stopped-flow CO2 hydrase assay on hCA XII
# hCA II = biological target: T4, hCA II (Homo sapiens, UniProt P00918); conditions: read-out: KI (μM) ^a / hCA I
# T4 construct: gene CA2; recombinant, obtained in house
# Excerpt: stopped-flow CO2 hydrase assay on hCA II
# [1] = pH […] ([…] Hepes), […] Na2SO4, […] min preincubation at room temperature
Molecule,Ki (hCA I) [µM],Ki (hCA IX) [µM],Ki (hCA XII) [µM],Ki (hCA II) [µM],Ki (hCA I; [1]) [µM],Ki (hCA IX; [1]) [µM],Ki (hCA XII; [1]) [µM],Ki (hCA II; [1]) [µM]
"O=C(O)c1ccc(=O)oc1 [compound 1, coumalic acid]",> 100,0.073,0.083,> 100,,,,
"O=C(Nc1ccccc1)c1ccc(=O)oc1 [compound 2, 2-Oxo-N-phenyl-2H-pyran-5-carboxamide]",> 100,3,0.7,> 100,,,,
"Cc1ccc(NC(=O)c2ccc(=O)oc2)cc1 [compound 3, 2-Oxo-N-(p-tolyl)-2H-pyran-5-carboxamide]",> 100,2.9,0.8,> 100,,,,
"Cc1cccc(NC(=O)c2ccc(=O)oc2)c1 [compound 4, 2-Oxo-N-(m-tolyl)-2H-pyran-5-carboxamide]",> 100,0.174,0.09,> 100,,,,
"CC(C)c1ccc(NC(=O)c2ccc(=O)oc2)cc1 [compound 5, N-(4-Isopropylphenyl)-2-oxo-2H-pyran-5-carboxamide]",> 100,0.273,0.068,> 100,,,,
"COc1ccc(NC(=O)c2ccc(=O)oc2)cc1 [compound 6, N-(4-Methoxyphenyl)-2-oxo-2H-pyran-5-carboxamide]",> 100,3.1,0.7,> 100,,,,
"COc1cccc(NC(=O)c2ccc(=O)oc2)c1 [compound 7, N-(3-Methoxyphenyl)-2-oxo-2H-pyran-5-carboxamide]",> 100,0.315,0.265,> 100,,,,
"O=C(Nc1ccc(Cl)cc1)c1ccc(=O)oc1 [compound 8, N-(4-Chlorophenyl)-2-oxo-2H-pyran-5-carboxamide]",> 100,3.2,0.7,> 100,,,,
"O=C(Nc1ccc(Br)cc1)c1ccc(=O)oc1 [compound 9, N-(4-Bromophenyl)-2-oxo-2H-pyran-5-carboxamide]",> 100,0.082,0.089,> 100,,,,
"O=C(Nc1ccccc1I)c1ccc(=O)oc1 [compound 10, N-(2-Iodophenyl)-2-oxo-2H-pyran-5-carboxamide]",> 100,0.281,0.081,> 100,,,,
"O=C(Nc1ccc(-c2ccccc2)cc1)c1ccc(=O)oc1 [compound 11, N-([1,1′-Biphenyl]-4-yl)-2-oxo-2H-pyran-5-carboxamide]",> 100,0.083,0.076,> 100,,,,
"O=C(Nc1ccccc1Cc1ccccc1)c1ccc(=O)oc1 [compound 12, N-(2-Benzylphenyl)-2-oxo-2H-pyran-5-carboxamide]",> 100,0.146,0.08,> 100,,,,
"O=C(Nc1cccc2ccccc12)c1ccc(=O)oc1 [compound 13, N-(Naphthalen-1-yl)-2-oxo-2H-pyran-5-carboxamide]",> 100,3.69,0.094,> 100,,,,
"O=C(NC1CCCCC1)c1ccc(=O)oc1 [compound 14, N-Cyclohexyl-2-oxo-2H-pyran-5-carboxamide]",> 100,0.098,0.086,> 100,,,,
N-(3-Morpholinopropyl)-2-oxo-2H-pyran-5-carboxamide [compound 15],,,,,> 100,0.326,0.087,> 100
